Like-named read-outs stand apart in the source and are kept apart here.
How the values were obtained:
[1] = Rapamycin whole blood pharmacokinetics (HPLC-MS/MS, non-compartmental) in dogs with osteosarcoma; format: in vivo, dog; conditions: for measurable trough levels: CD8, CD9; for concentration at 15 day / concentration at 8 day / concentration at 9 day / concentration at 48 h / Tmax / half-life / Cmax / AUC(0-t): dog, whole blood; for concentration at 15 day / concentration at 8 day / concentration at 9 day / concentration at 48 h: intramuscular; for concentration at 15 day: Day 15 (seven days after cessation), read-out: CD15; for concentration at 8 day: trough Day 8, median (range), read-out: CD8; for concentration at 9 day: trough Day 9, median (range), read-out: CD9; for concentration at 48 h: 48 h after first dose, read-out: C48h; for AUC(0-t): read-out: AUC0–48
Protocol: Subsequent doses were administered on days 3–8. Additional pharmacokinetic samples were obtained on days 8 (192h, day of definitive resection) and 9 (hr 216, after last day of dosing) and 15 (360 hr). […] Whole blood was transferred to cyrovials and stored at −80°C until analysis. Whole blood, serum and plasma were collected from all patients. Serum and plasma samples were stored for post-hoc hypothesis generating assessments.
The eluate was analyzed using HPLC with MS/MS detection. […] Clinical sample results were calculated using peak area ratios and calibration curves were generated using a weighted (1/x^2) linear least-squares regression. […] All data were acquired, processed, and reported using Applied Biosystems/MDS-Sciex Analyst Version 1.4 software (www.lifetechnologies.com, Carlsbad, CA).
Area under the concentration time curve to the time point measured at 48hr after the first dose (AUC0–48h) was calculated with the linear trapezoidal method. The terminal rate constant was derived from the slope of the natural log transformed concentrations and times on the terminal elimination phase of the decay curve. Terminal elimination half-life was calculated by dividing 0.693 by the terminal rate constant. The relationship of pharmacokinetic parameters and pharmacodynamic variables were examined using scatter plots.

[2] = tested on: p/t-S6RP in PBMC; experiment: PBMC p-S6RP/t-S6RP by electrochemiluminescence; format: in vivo, dog
Protocol: Modulation of mTOR pathway targets were evaluated in matched tumor ( Figure 4A .) and PBMC samples ( Figure 4B .) to compare p-S6RP and p-AKT expression pre- and post-rapamycin treatment. ECL techniques were utilized to accurately quantify the relative percentage of phospho-protein over total protein (p/t) in tumor and PBMC. Quality control assessments defined 10 tumor and 8 PBMC samples eligible for evaluation. […] Modulation of mTOR pathway targets in PBMC and tumor samples were concordant.
PBMCS were collected in two (2) 8 ml BD CPT vacutainers (Becton Dickinson, Franklin Lakes, NJ) with sodium heparin, each filled completely with whole blood. […]
The samples (cell lines, tumor, PBMC) used for ECL were prepared based on the Meso-Scale Discovery (MSD) lysate preparation protocol (Meso-Scale Discovery, Gaithersburg, MD) using complete lysis buffer with protease and phosphatase inhibitors. For quantitative analysis of phospho-proteins, duplex t/p-AKT (S473) and duplex t/p-S6RP (S240/S244) were obtained from MSD, used following manufacturer's instructions, and read with Sector Imager 2400 (MSD). […] Out of the 19 paired tumor biopsies analyzed, 9 were excluded due to values below the detection limit, of which 8 were from one trial site. […] PBMC from 8 patients were analyzed for p-S6RP/t-S6RP and all data was shown.

[3] = tested on: p/t-S6RP (S240/244) in canine osteosarcoma cell lines (BW and SK); experiment: ECL quantification of p/t-S6RP in canine osteosarcoma cell lines; format: cell-based
Protocol: (§1) Protein concentration of lysates was determined by BCA protein assay (Pierce, Thermo Fischer Scientific, Rockford, IL). Lysates were separated with Invitrogen NuPage gels (Invitrogen, Carlsbad, CA) and transferred to nitrocellulose membranes. The blots were probed for the proteins of interest with specific antibodies followed by a secondary antibody (Cell Signaling Technology, Inc, Danvers, MA) and then incubated with SuperSignal chemiluminescence substrate (Pierce). The blots were then exposed to Kodak Biomax Light Film (Kodak, Rochester, NY). The antibodies against AKT and p-AKT (Ser473), S6RP and p-S6RP, and actin were obtained from Cell Signaling.
The samples (cell lines, tumor, PBMC) used for ECL were prepared based on the Meso-Scale Discovery (MSD) lysate preparation protocol (Meso-Scale Discovery, Gaithersburg, MD) using complete lysis buffer with protease and phosphatase inhibitors. For quantitative analysis of phospho-proteins, duplex t/p-AKT (S473) and duplex t/p-S6RP (S240/S244) were obtained from MSD, used following manufacturer's instructions, and read with Sector Imager 2400 (MSD). A total of 25 ug of lysates were used per well for the duplex assays. Out of the 19 paired tumor biopsies analyzed, 9 were excluded due to values below the detection limit, of which 8 were from one trial site. […] PBMC from 8 patients were analyzed for p-S6RP/t-S6RP and all data was shown. […]

[4] = tested on: p-S6RP in canine osterosarcoma cell lines (BM, SK); experiment: Immunoblot of p-S6RP in canine osteosarcoma cell lines; format: cell-based; conditions: 100 nM, BM and SK cells
Protocol: as §1
(§2) Controls were Jurkat cells treated with LY (−) or PMA (+). B. Quantitative determination of total and p-S6RP (S240/244) with electrochemiluminescence (ECL) assay. C. […] (1.56 MB TIF) Click here for additional data file.

[5] = tested on: p-S6RP in human breast cancer cell lines (MCF7 and MDA231); experiment: Immunoblot of p-S6RP in human breast cancer cell lines; format: cell-based; conditions: 100 nM, MCF7 and MDA231 cells
Protocol: as §1, §2

[6] = tested on: dogs with appendicular osteosarcoma
Excerpt: All dogs underwent a pre-treatment tumor biopsy and collection of PBMC at study initiation. […] The defined study period was 15 days. Safety, tumoral pharmacodynamic (PD) modulation, correlation to surrogates (PBMC), and the relationship between PK and PD were study endpoints.
Escalation through 5 planned dose cohorts was based on assessment of dose limiting toxicities (DLT) using VCOG modified-CTCAE convention [32]. Age (range, 3.7–11.9 years; median 7.9 years), sex (14 spayed females, 8 castrated males) and breed (5 mixed-breed and 17 purebred) were recorded for all dogs enrolled on study ( Table 3 : Patient Characteristics).
Dogs underwent a complete physical examination, CBC, serum biochemical profile, UA and pre-treatment biopsies at Day 0. Vital signs (core temperature, pulse, respiratory rate) were recorded at baseline. […] Owners completed an Owner Assessment Form on Days 0, 8 and 15 to record impressions of their dog's clinical status throughout the study period.
Blood samples were collected to define hematologic and biochemical DLT. CBC, biochemical profile and urinalysis were evaluated at Day 0, and then weekly (pre-operatively at Day 8 and Day 15) to define safety. The Veterinary Cooperative Oncology Group Common Toxicity Criteria for Adverse Events (VCOG-CTCAE) was used to determine DLT, defined as any grade 3 or grade 4 (hematologic or non-hematologic) events [32]. […] MTD was defined as one dose level below the maximum achieved in dose-escalation. Any and all adverse events were collected within the electronic database reporting system (C3D) following strict one-week reporting timelines.

[7] = Mixed Breed (2 dogs), Boxer (1 dog), 0.04 mg/kg IM daily, N=3
[8] = Mixed Breed (2 dogs), Boxer (1 dog), 0.04 mg/kg IM, after first dose, median (range), N=3
[9] = 0.01 mg/kg IM, after first dose, median (range), N=3
[10] = 0.06 mg/kg IM, after first dose, median (range), N=7
[11] = 0.08 mg/kg IM, after first dose, median (range), N=4
[12] = 0.02 mg/kg IM, after first dose, median (range), N=4
[13] = both, various breeds (5 mixed-breed and 17 purebred dogs), dog, in vivo, 15 days

With `CO[C@H]1C[C@@H]2CC[C@@H](C)[C@@](O)(O2)C(=O)C(=O)N2CCCC[C@H]2C(=O)O[C@H]([C@H](C)C[C@@H]2CC[C@@H](O)[C@H](OC)C2)CC(=O)[C@H](C)/C=C(\C)[C@@H](O)[C@@H](OC)C(=O)[C@H](C)C[C@H](C)/C=C/C=C/C=C/1C` [rapamycin, Rapamycin] the “median trough concentrations on day 8 and 9 (CD8, CD9)” value ([1]; 0.06 mg/kg (approx 2.1 mg/day) IM daily) was “greater than 10 ng/mL”, the “median trough concentrations on day 8 and 9 (CD8, CD9)” value ([1]; 0.08 mg/kg (approx 2.8 mg/day) IM daily) was “greater than 10 ng/mL” and the measurable trough levels ([1]; 4th dose cohort (0.06 mg/kg, approx 2.1 mg)) was no less than 10 ng/mL. For the same compound, the measurable trough levels ([1]; 5th dose cohort (0.08 mg/kg, approx 2.8 mg)) was no less than 10 ng/mL, the concentration at 15 day ([1]; Mixed Breed (2 dogs), Boxer (1 dog), 0.04 mg/kg IM daily, median (range), N=3) was 1.56 ng/mL and the concentration at 8 day [1, 7] was 6.62 ng/mL. The concentration at 9 day [1, 7] was 7.92 ng/mL, the concentration at 48 h ([1]; Mixed Breed (2 dogs), Boxer (1 dog), 0.04 mg/kg IM, median (range), N=3) was 1.86 ng/mL and the Tmax [1, 8] was 24 h. For the same compound, the half-life ([1]; Mixed Breed (2 dogs), Boxer (1 dog), 0.04 mg/kg IM, terminal half-life, median (range), N=3, read-out: T1/2 (converted)) was 62.7 h, the Cmax [1, 8] was 2.87 ng/mL and the AUC(0-t) [1, 8] was 105 ng·h/mL. For the same compound, the Steady state ([1]; after 8 days of exposure, daily IM) was “not achieved”, the Tmax ([1]; both sexes, all dogs, 0.01–0.08 mg/kg IM, range) was 2 to 48 h and the half-life ([1]; both sexes, dogs, IM, read-out: terminal half-life) was greater than 60 h. The half-life ([1]; im, 0.01 mg/kg, read-out: T1/2 (converted)) was 115 h, the concentration at 15 day ([1]; 0.01 mg/kg IM daily, median (range), N=3) was 0.45 ng/mL and the concentration at 8 day ([1]; 0.01 mg/kg IM daily, N=3) was 2.78 ng/mL. The concentration at 9 day ([1]; 0.01 mg/kg IM daily, N=3) was 1.92 ng/mL, the concentration at 48 h ([1]; 0.01 mg/kg IM, median (range), N=3) was 0.91 ng/mL and the concentration at 15 day ([1]; 0.02 mg/kg IM daily, median (range), N=4) was 0.86 ng/mL. For the same compound, the concentration at 8 day ([1]; 0.02 mg/kg IM daily, N=4) was 5.63 ng/mL, the concentration at 9 day ([1]; 0.02 mg/kg IM daily, N=4) was 5.93 ng/mL and the concentration at 48 h ([1]; 0.02 mg/kg IM, median (range), N=4) was 1.26 ng/mL. It also gave a concentration at 15 day ([1]; 0.06 mg/kg IM daily, median (range), N=7) of 1.04 ng/mL, a concentration at 8 day ([1]; 0.06 mg/kg IM daily, N=7) of 9.84 ng/mL and a concentration at 9 day ([1]; 0.06 mg/kg IM daily, N=7) of 9.3 ng/mL. For the same compound, the concentration at 48 h ([1]; 0.06 mg/kg IM, median (range), N=7) was 3.61 ng/mL, the concentration at 15 day ([1]; 0.08 mg/kg IM daily, median (range), N=4) was 3.66 ng/mL and the concentration at 8 day ([1]; 0.08 mg/kg IM daily, N=4) was 15.4 ng/mL. For the same compound, the concentration at 9 day ([1]; 0.08 mg/kg IM daily, N=4) was 16.4 ng/mL, the concentration at 48 h ([1]; 0.08 mg/kg IM, median (range), N=4) was 4.6 ng/mL and the Tmax [1, 9] was 24 h. It also gave a Tmax ([1]; 0.02 mg/kg IM, after first dose, median, N=4) of 24 h, a half-life ([1]; 0.02 mg/kg IM, terminal half-life, median (range), N=4, read-out: T1/2 (converted)) of 70.8 h and a Tmax [1, 10] of 6 h. It also gave a half-life ([1]; 0.06 mg/kg IM, terminal half-life, median (range), N=7, read-out: T1/2 (converted)) of 72.7 h, a Tmax [1, 11] of 15 h and a half-life ([1]; 0.08 mg/kg IM, terminal half-life, median (range), N=4, read-out: T1/2 (converted)) of 86.6 h. For the same compound, the Cmax [1, 9] was 1.27 ng/mL, the AUC(0-t) [1, 9] was 47.4 ng·h/mL and the Cmax [1, 12] was 1.69 ng/mL. It also gave an AUC(0-t) [1, 12] of 64.3 ng·h/mL, a Cmax [1, 10] of 7.29 ng/mL and an AUC(0-t) [1, 10] of 285 ng·h/mL. The Cmax [1, 11] was 12.1 ng/mL, the AUC(0-t) [1, 11] was 309 ng·h/mL and the “systemic exposure (Cmax and AUC0–48h) versus dose” value ([1]; dose range 0.01–0.08 mg/kg IM) was “increased proportionally to rapamycin dose”. The “PBMC p/t-S6RP inhibition” value ([2]; Day 8, maintained through Day 15, n = 8, p<0.0001) was “highly significant”, the “dogs with PBMC phosphorylation of S6RP significantly inhibited” value ([2]; Day 8 after rapamycin therapy) was 8/8 and the “reduction of p/t-S6RP” value ([3]; BW and SK cells, rapamycin 100 nM for 4 hours vs untreated controls) was “approximately 50 ×”. For the same compound, the “inhibition of down-stream targets of mTOR” value ([3]; canine osteosarcoma cell lines, western blot and ECL) was “inhibits down-stream targets of mTOR in a dose-dependent fashion”, the “rapamycin-mediated inhibition of p-S6RP (immunoblot)” value [4] was “inhibition of p-S6RP” and the “rapamycin-mediated inhibition of p-S6RP (immunoblot)” value [5] was “inhibition of p-S6RP”. The “anorexia, self-limiting non-dose limiting toxicity (grade 1,2), number of dogs” value [6, 13] was 2, the “diarrhea, self-limiting non-dose limiting toxicity (grade 1,2), number of dogs” value [6, 13] was 1 and the “thrombocytopenia, self-limiting non-dose limiting toxicity (grade 1,2), number of dogs” value [6, 13] was 1. The “vomiting, self-limiting non-dose limiting toxicity (grade 1,2), number of dogs” value [6, 13] was 2, the febrile episodes reported ([6]; dog, in vivo) was “two” and the “immunosuppression and surgical incision healing delays” value ([6]; dog, in vivo) was “Neither immunosuppression nor surgical incision healing delays were reported”. The “lymphopenia, post-operative infection rate, surgical incision healing delays” value ([6]; dog, in vivo) was “no evident lymphopenia, increased post-operative infection rate, nor surgical incision healing delays”, the “neurological, respiratory, renal, or biochemical toxicities related to treatment” value ([6]; dog, in vivo) was “no clinically significant” and the “tolerability of dose escalation” value ([6]; dog, in vivo) was “well tolerated”. For the same compound, the “maximally tolerated dose (MTD)” value ([6]; escalation to 0.08 mg/kg IM daily, n = 19) was “not defined”.

Reference: article PMC2882366 (PLoS ONE, 2010)
